pEC50: −log10 of the molar value. Where two headings read alike, the source gives them in different places.
Columns and labels:
human FPR2 = human FPR2 (Homo sapiens (Human), UniProt P25090); experiment: FPR2 cyclic adenosine monophosphate (cAMP) assay; assay type: cell-based; settings: CHO cells overexpressing human FPR2
Description: FPR2 and FPR1 Cyclic Adenosine Monophosphate (cAMP) Assays. A mixture of forskolin (5 μM final for FPR2 or 10 μM final for FPR1) and IBMX (200 μM final) were added to 384-well Proxiplates (Perkin-Elmer) pre-dotted with test compounds in DMSO (1% final) at final concentrations in the range of 0.020 nM to 100 μM. Chinese Hamster Ovary cells (CHO) overexpressing human FPR1 or human FPR2 receptors were cultured in F-12 (Ham's) medium supplemented with 10% qualified FBS, 250 μg/ml zeocin and 300 μg/ml hygromycin (Life Technologies). Reactions were initiated by adding 2,000 human FPR2 cells per well or 4,000 human FPR1 cells per well in Dulbecco's PBS (with calcium and magnesium) (Life Technologies) supplemented with 0.1% BSA (Perkin-Elmer). The reaction mixtures were incubated for 30 min at room temperature. The level of intracellular cAMP was determined using the HTRF HiRange cAMP assay reagent kit (Cisbio) according to manufacturer's instruction. Solutions of cryptate conjugated anti-cAMP and d2 flurorophore-labelled cAMP were made in a supplied lysis buffer separately. Upon completion of the reaction, the cells were lysed with equal volume of the d2-cAMP solution and anti-cAMP solution. […] The potency and activity of a compound to inhibit cAMP production was then determined by fitting to a 4-parametric logistic equation from a plot of cAMP level versus compound concentrations.

human FPR1 = human FPR1 (Homo sapiens (Human), UniProt P21462); experiment: FPR1 cyclic adenosine monophosphate (cAMP) assay; assay type: cell-based; settings: CHO cells overexpressing human FPR1; inhibition of forskolin (10 μM) stimulated cAMP; read-out: hFPR1 cAMP EC50
Description: FPR2 and FPR1 Cyclic Adenosine Monophosphate (cAMP) Assays. A mixture of forskolin (5 μM final for FPR2 or 10 μM final for FPR1) and IBMX (200 μM final) were added to 384-well Proxiplates (Perkin-Elmer) pre-dotted with test compounds in DMSO (1% final) at final concentrations in the range of 0.020 nM to 100 μM. Chinese Hamster Ovary cells (CHO) overexpressing human FPR1 or human FPR2 receptors were cultured in F-12 (Ham's) medium supplemented with 10% qualified FBS, 250 μg/ml zeocin and 300 μg/ml hygromycin (Life Technologies). Reactions were initiated by adding 2,000 human FPR2 cells per well or 4,000 human FPR1 cells per well in Dulbecco's PBS (with calcium and magnesium) (Life Technologies) supplemented with 0.1% BSA (Perkin-Elmer). The reaction mixtures were incubated for 30 min at room temperature. The level of intracellular cAMP was determined using the HTRF HiRange cAMP assay reagent kit (Cisbio) according to manufacturer's instruction. Solutions of cryptate conjugated anti-cAMP and d2 flurorophore-labelled cAMP were made in a supplied lysis buffer separately. Upon completion of the reaction, the cells were lysed with equal volume of the d2-cAMP solution and anti-cAMP solution. After a 1-h room temperature incubation, time-resolved fluorescence intensity was measured using the Envision (Perkin-Elmer) at 400 nm excitation and dual emission at 590 nm and 665 nm. A calibration curve was constructed with an external cAMP standard at concentrations ranging from 1 μM to 0.1 pM by plotting the fluorescent intensity ratio from 665 nm emission to the intensity from the 590 nm emission against cAMP concentrations. The potency and activity of a compound to inhibit cAMP production was then determined by fitting to a 4-parametric logistic equation from a plot of cAMP level versus compound concentrations.

[1] = inhibition of forskolin (5 μM) stimulated cAMP, read-out: hFPR2 cAMP2 EC50
[2] = hFPR2 Assay, read-out: hFPR2 agonist activity EC50

human FPR2, sequence (P25090 whole entry): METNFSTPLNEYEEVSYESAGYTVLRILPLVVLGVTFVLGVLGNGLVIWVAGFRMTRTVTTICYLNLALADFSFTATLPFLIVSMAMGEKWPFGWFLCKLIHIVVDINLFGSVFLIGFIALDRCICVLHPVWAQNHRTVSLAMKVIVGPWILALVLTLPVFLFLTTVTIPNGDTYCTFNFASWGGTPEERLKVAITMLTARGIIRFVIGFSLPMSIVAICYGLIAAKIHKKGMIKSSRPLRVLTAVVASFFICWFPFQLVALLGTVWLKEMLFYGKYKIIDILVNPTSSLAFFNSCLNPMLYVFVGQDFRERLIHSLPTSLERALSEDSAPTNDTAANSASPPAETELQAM
human FPR1, sequence (P21462 whole entry): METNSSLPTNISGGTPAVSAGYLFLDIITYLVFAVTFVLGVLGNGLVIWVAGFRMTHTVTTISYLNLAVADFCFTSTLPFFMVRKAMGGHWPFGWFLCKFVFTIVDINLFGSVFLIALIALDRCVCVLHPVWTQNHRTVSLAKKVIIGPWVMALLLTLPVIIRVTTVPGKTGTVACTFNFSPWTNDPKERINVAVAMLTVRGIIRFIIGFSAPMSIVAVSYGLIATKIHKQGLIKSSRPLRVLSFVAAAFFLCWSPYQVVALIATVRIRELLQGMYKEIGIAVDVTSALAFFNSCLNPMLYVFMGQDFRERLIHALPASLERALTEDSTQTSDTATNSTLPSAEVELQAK

| Structure (SMILES) | pEC50 (human FPR2; [1]) | pEC50 (human FPR1) | pEC50 (human FPR2; [2]) |
| --- | --- | --- | --- |
| Cc1ccc(NC(=O)NC2CCCN(c3ccc(-c4cccnc4)cc3)C2=O)cc1 (centres unmarked) [Example 15] | 8.08 | 6.70 | – |
| O=C(Nc1ccc(Cl)cc1)NC1CCCN(c2ccc(-c3cccnc3)cc2)C1=O (centres unmarked) [Example 16, 1-(4-chlorophenyl)-3-(2-oxo-1-(4-(pyridin-3-yl)phenyl)piperidin-3-yl)urea] | 8.03 | 6.41 | – |
| COc1ccc(NC(=O)NC2CCCN(c3ccc(-c4ccccc4S(C)(=O)=O)cc3F)C2=O)cc1 (centres unmarked) [Example 17, 1-(1-(3-fluoro-2′-(methylsulfonyl)-[1,1′-biphenyl]-4-yl)-2-oxopiperidin-3-yl)-3-(4-methoxyphenyl)urea] | 8.00 | 6.77 | – |
| Cc1cnc(NC(=O)NC2CCCN(c3ccc(-c4ccccc4S(C)(=O)=O)cc3F)C2=O)s1 (centres unmarked) [Example 26, 1-(1-(3-fluoro-2′-(methylsulfonyl)-[1,1′-biphenyl]-4-yl)-2-oxopiperidin-3-yl)-3-(5-methylthiazol-2-yl)urea] | 6.42 | 6.68 | – |
| CS(=O)(=O)c1ccccc1-c1ccc(N2CCCC(NC(=O)Nc3ccc(Cl)nn3)C2=O)c(F)c1 (centres unmarked) [Example 27, 1-(6-chloropyridazin-3-yl)-3-(1-(3-fluoro-2′-(methylsulfonyl)-[1,1′-biphenyl]-4-yl)-2-oxopiperidin-3-yl)urea] | 6.40 | 6.02 | – |
| CS(=O)(=O)c1ccccc1-c1ccc(N2CCCC(NC(=O)Nc3ccc(F)cc3)C2=O)c(F)c1 (centres unmarked) [Example 28, 1-(1-(3-fluoro-2′-(methylsulfonyl)-[1,1′-biphenyl]-4-yl)-2-oxopiperidin-3-yl)-3-(4-fluorophenyl)urea] | 6.25 | 5.92 | – |
| O=C(Nc1ccc(C(F)(F)F)cc1)NC1CCCN(c2ccc(-c3ccccc3)cc2)C1=O (centres unmarked) [Example 36, 1-(1-([1,1′-biphenyl]-4-yl)-2-oxopiperidin-3-yl)-3-(4-(trifluoromethyl)phenyl)urea] | 8.01 | 6.55 | – |
| Cc1ccncc1-c1ccc(N2CCCC(NC(=O)Nc3ccc(C(F)(F)F)cc3)C2=O)cc1 (centres unmarked) [Example 47, 1-(1-(4-(4-methylpyridin-3-yl)phenyl)-2-oxopiperidin-3-yl)-3-(4-(trifluoromethyl)phenyl)urea] | 6.48 | 5.80 | – |
| NC(=O)c1ccc(-c2ccc(N3CCCC(NC(=O)Nc4ccc(C(F)(F)F)cc4)C3=O)cc2)cc1 (centres unmarked) [Example 48, 4′-(2-oxo-3-(3-(4-(trifluoromethyl)phenyl)ureido)piperidin-1-yl)-[1,1′-biphenyl]-4-carboxamide] | 6.25 | 6.03 | – |
| CS(=O)(=O)c1ccc(-c2ccc(N3CCCC(NC(=O)Nc4ccc(C(F)(F)F)cc4)C3=O)cc2)cc1 (centres unmarked) [Example 49, 1-(1-(4′-(methylsulfonyl)-[1,1′-biphenyl]-4-yl)-2-oxopiperidin-3-yl)-3-(4-(trifluoromethyl)phenyl)urea] | 6.07 | 5.68 | – |
| O=C(Nc1ccc(C(F)(F)F)cc1)N[C@H]1CCCN(c2ccc(-c3ccccc3CO)cc2)C1=O [Example 58] | 8.04 | 6.55 | – |
| CS(=O)(=O)Nc1ccccc1-c1ccc(N2CCC[C@@H](NC(=O)Nc3ccc(C(F)(F)F)cc3)C2=O)cc1 [Example 66] | 9.49 | 7.00 | – |
| N#Cc1ccccc1-c1ccc(N2CCC[C@@H](NC(=O)Nc3ccc(Cl)cc3)C2=O)cc1 [Example 76] | 9.09 | 8.00 | – |
| O=C(Nc1ccc(Cl)cc1)N[C@@H]1CCCN(c2ccc(-c3ccccc3CO)cc2)C1=O [Example 77] | 9.17 | 8.06 | – |
| NC(=O)c1ccccc1-c1ccc(N2CCC[C@@H](NC(=O)Nc3ccc(Cl)cc3)C2=O)c(F)c1 [Example 78] | 9.05 | 7.38 | – |
| CS(=O)(=O)Nc1ccccc1-c1ccc(N2CCC[C@@H](NC(=O)Nc3ccc(Cl)cc3)C2=O)cc1 [Example 86] | 9.85 | 7.49 | – |
| O=C(Nc1ccc(C(F)(F)F)cc1)N[C@@H]1CCCN(c2ccc(-c3cccc(F)c3F)cc2)C1=O [Example 125] | 8.05 | 6.48 | – |

| Structure (SMILES) | pEC50 (human FPR2; [1]) | pEC50 (human FPR1) | pEC50 (human FPR2; [2]) |
| --- | --- | --- | --- |
| CCOc1ncccc1-c1ccc(N2CCC[C@@H](NC(=O)Nc3ccc(C(F)(F)F)cc3)C2=O)cc1 [Example 129] | 8.03 | 6.77 | – |
| NC(=O)c1ccccc1-c1ccc(N2CCC[C@@H](NC(=O)Nc3ccc(C(F)(F)F)cc3)C2=O)cc1 [Example 139] | 8.00 | 6.82 | – |
| CN(c1ncccc1-c1ccc(N2CCC[C@@H](NC(=O)Nc3ccc(C(F)(F)F)cc3)C2=O)cc1)S(C)(=O)=O [Example 145] | 9.44 | 7.82 | – |
| O=C(Nc1ccc(C(F)(F)F)cc1)N[C@@H]1CCCN(c2ccc(-c3cncc(N4CCOCC4)c3)cc2)C1=O [Example 166] | 8.10 | 6.48 | – |
| NC(=O)c1ccccc1-c1ccc(N2CCC[C@@H](NC(=O)Nc3ccc(F)cc3)C2=O)cc1 [Example 174] | 6.35 | 6.05 | – |
| Cc1ccc(NC(=O)N[C@@H]2CCCN(c3ccc(-c4ccccc4C(N)=O)cc3)C2=O)c(C)c1 [Example 175] | 6.28 | 5.59 | – |
| COc1ccc(NC(=O)N[C@@H]2CCCN(c3ccc(-c4ccccc4C(N)=O)cc3)C2=O)cc1Cl [Example 176] | 6.11 | 5.92 | – |
| CC(C)(C)NS(=O)(=O)c1ccccc1-c1ccc(N2CCC[C@@H](NC(=O)Nc3ccc(Cl)cc3)C2=O)cc1 [Example 183] | 9.34 | 9.25 | – |
| CS(=O)(=O)Nc1ccccc1-c1ccc(N2CCC[C@@H](NC(=O)Nc3ccc(C(F)(F)F)cn3)C2=O)cc1 [Example 184] | 8.09 | 5.82 | – |
| O=C(Nc1ccc(Cl)cn1)N[C@@H]1C[C@@H](O)CN(c2ccc(-c3ccccc3F)cc2)C1=O [Example 269, 1-(5-Chloropyridin-2-yl)-3-((3R,5R)-1-(2′-fluoro-[1,1′-biphenyl]-4-yl)-5-hydroxy-2-oxopiperidin-3-yl)urea] | – | – | 7.40 to 8.30 |
| CC(N)c1cccc(-c2ccc(N3CCC[C@@H](NC(=O)Nc4ccc(Cl)cc4F)C3=O)c(F)c2F)c1 (stereo partly drawn) [Example 274, 1-((3R)-1-(3′-(1-Aminoethyl)-2,3-difluoro-[1,1′-biphenyl]-4-yl)-2-oxopiperidin-3-yl)-3-(4-chloro-2-fluorophenyl)urea] | – | – | ≥ 8.30 |
| N#Cc1ccccc1-c1ccc(N2CCC[C@@H](NC(=O)Nc3cnc(Cl)cn3)C2=O)c(F)c1F [Example 275, (R)-1-(5-Chloropyrazin-2-yl)-3-(1-(2′-cyano-2,3-difluoro-[1,1′-biphenyl]-4-yl)-2-oxopiperidin-3-yl)urea] | – | – | ≥ 8.30 |
| CS(=O)(=O)Nc1cccc(-c2ccc(N3CCC[C@@H](NC(=O)Nc4ccc(Cl)cc4)C3=O)cc2)c1F [Example 278, (R)-N-(4′-(3-(3-(4-Chlorophenyl)ureido)-2-oxopiperidin-1-yl)-2-fluoro-[1,1′-biphenyl]-3-yl)methanesulfonainide] | – | – | ≥ 8.30 |
| CS(=O)(=O)Nc1c(F)cccc1-c1ccc(N2CCC[C@@H](NC(=O)Nc3ccc(Cl)cc3)C2=O)cc1 [Example 279, (R)-N-(4′-(3-(3-(4-Chlorophenyl)ureido)-2-oxopiperidin-1-yl)-3-fluoro-[1,1′-biphenyl]-2-yl]methanesulfonamide] | – | – | ≥ 8.30 |
| CC(N)c1cccc(-c2ccc(N3CCC[C@@H](NC(=O)Nc4ccc(C(F)(F)F)cn4)C3=O)c(F)c2F)c1 (stereo partly drawn) [Example 280, 1-((3R)-1-(3′-(1-Aminoethyl)-2,3-difluoro-[1,1′-biphenyl]-4-yl)-2-oxopiperidin-3-yl)-3-(5-(trifluoromethyl)pyridin-2-yl)urea] | – | – | 7.40 to 8.30 |
| CS(=O)(=O)Nc1ccccc1-c1ccc(N2CCC[C@@H](NC(=O)Nc3ccc(Cl)cc3)C2=O)cc1OC(F)(F)F [Example 300] | – | – | 7.40 to 8.30 |

— patent US11186544B2 (BRISTOL-MYERS SQUIBB COMPANY, priority 2017, dated 2021)
